Legend:
[1] = tested on: Serratia marcescens strain HY/a 21
Trichomonas foetus = assay: Infection tests with Trichomonas foetus in mice; type: in vivo; settings: for % of Animals Dying After Infection (Mean Value): stomach tube, 3 successive days, NMRI mice
in vivo = settings: mouse

Compound	Mutants, Test [1]	Mutation frequency [1]	% of Animals Dying After Infection (Mean Value) (Trichomonas foetus; 1.56 mg/kg)	% of Animals Dying After Infection (Mean Value) (Trichomonas foetus; 3.12 mg/kg)	% of Animals Dying After Infection (Mean Value) (Trichomonas foetus; 6.25 mg/kg)	% of Animals Dying After Infection (Mean Value) (Trichomonas foetus; 12 mg/kg)	% of Animals Dying After Infection (Mean Value) (Trichomonas foetus; 25 mg/kg)	animals survived / survival rate (Trichomonas foetus; dose of 6.25 mg/kg, mice infected with T. foetus)	activity against T. foetus compared with metronidazol (in words) (Trichomonas foetus; infected mice)	LD50 (in vivo)
O=C1CCO1 [β-propiolactone, reference compound]	6.6 × 10^2 colonies/ml	3.4 × 10^-6	–	–	–	–	–	–	–	–
CCc1ccccc1C(=O)NN=CC=Cc1ccc([N+](=O)[O-])o1 [B, 2-[(o-ethylbenzoylhydrazono)propen-1-yl]-5-nitrofuran]	–	–	86%	62%	46%	6%	0%	54%	substantially better activity in mice infected with T. foetus	> 2000 mg/kg

— patent publication US4051253A, “Microbicidal nitrofuryl compounds” (Byk Gulden Lomberg Chemische Fabrik GmbH, priority 1974, dated 1977)
